This is an account of results in patent US20170107179A1 (Tetraphase Pharmaceuticals, Inc., priority 2010, published 2017).

In one data set the test system is E. coli DH10B EC969 TetM. Nature of the data set: MIC, E. coli DH10B recombinantly expressing tetracycline-resistance gene. Particulars: arabinose-induced, ampicillin in medium.
Data set [1] deals with E. coli DH10B EC1083 TetB. The data set is described as above. The settings on record: arabinose-induced, ampicillin in medium.
In data set [2] the test system is Crl:SKH1-hr hairless mouse. The experiment in a line: In vivo phototoxicity, Crl:SKH1-hr hairless mouse model. Particulars: hairless mice, intracutaneous 0.0375 or 0.375 mg/mouse, UVA 20 J/cm^2, observed up to 3 days. The protocol:
To estimate its potential to produce phototoxicity in vivo, Compound 102 was tested in validated in vivo and in vitro models of acute phototoxic activity at Charles River Laboratories (See Spielmann, H., et al., The second ECVAM workshop on phototoxicity testing. The report and recommendations of ECVAM workshop 42. Altern Lab Anim, 2000. 28(6): p. 777-814; and Peters, B. and H. G. Holzhutter, In vitro phototoxicity testing: development and validation of a new concentration response analysis software and biostatistical analyses related to the use of various prediction models. Altern Lab Anim, 2002. 30(4): p. 415-32, the entire teachings of both are incorporated herein by reference).
A vehicle control group was injected with normal saline. The pH of compound formulations was adjusted to 6.5±0.5 prior to injection. Immediately after administration, mice were lightly anesthetized via intraperitoneal injection of chloral hydrate in deionized water and then positioned on plastic tubing with laboratory tape. An aluminum foil mask with a single hole with a diameter of 1.3 cm (1.3 cm^2) was placed over the mid-dorsum injection site before UVA exposure. The distal administration site was shielded from UVA exposure. A UVA dose of no less than 20.0 and no more than 20.1 J/cm^2 at an intensity of 5±1 mW/cm^2 at the level of the mice was delivered during the exposure period. […]

Another data set relates to E. coli DH10B EC970 TetK. Nature of the data set: MIC, E. coli DH10B recombinantly expressing tetracycline-resistance gene. Particulars: arabinose-induced, ampicillin in medium.
The test system of data set [3] is E. coli DH10B EC1153 Tet(X). The data set is described as above. The settings on record: arabinose-induced, ampicillin in medium.
Data set [4] relates to E. coli DH10B EC1082 TetA. Described as above. The settings on record: arabinose-induced, ampicillin in medium.
Another data set concerns E. coli DH10B EC971 LacZ. Nature of the data set: MIC, E. coli DH10B recombinantly expressing control gene. The settings on record: E. coli DH10B, arabinose-induced, ampicillin in medium.
The subject of a further data set is S. aureus SA101. Format: cell-based. Particulars: SA101, plates containing compound at 5× the MIC.
The next data set relates to S. pneumoniae SP106. Format: cell-based. Particulars: SP106, plates containing compound at 5× the MIC, 5% sheep blood.
Data set [5] concerns Gram-negative and Gram-positive organisms (clinical isolates). The experiment in a line: Broth microdilution MIC against clinical isolates (CLSI M7-A8), Table 9. Format: cell-based. (In broth dilution the organism is exposed to a series of concentrations in liquid medium.)
The next data set concerns Gram-positive pathogens. Nature of the data set: Broth microdilution MIC, respiratory/skin pathogens (Table 12).
The test system of another data set is M. catarrhalis (n = 50). The experiment in a line: Broth microdilution MIC, respiratory pathogens (Table 13).
The mark [6] stands for this setting: Staphylococcus aureus (MRSA PVL+), n=30.
[7] abbreviates: Stenotrophomonas maltophilia, n=29.

Regarding `CN(C)c1ccc(O)c2c1C[C@H]1C[C@H]3[C@H](N(C)C)C(O)=C(C(N)=O)C(=O)[C@@]3(O)C(O)=C1C2=O` [Minocycline, minocycline], in the data set with E. coli DH10B EC969 TetM, the “MIC EC969 TetM” value was 64. Further, the “MIC EC1083 TetB” value in data set [1] is recorded as 16. Further, the “phototoxicity, skin reactions at site of UVA exposure” value in data set [2] was “no skin reaction at either dose”. In addition, the “MIC EC970 TetK” value in the data set with E. coli DH10B EC970 TetK is reported as 1. In addition, in [3], the “MIC EC1153 Tet(X)” value is 4. Also, the “MIC EC1082 TetA” value in [4] is recorded as 8. Further, in the data set on E. coli DH10B EC971 LacZ, the “MIC EC971 LacZ” value turned out to be 0.5.
Regarding `CO[C@H]1/C=C/O[C@@]2(C)Oc3c(C)c(O)c4c(O)c(c(/C=N/N5CCN(C)CC5)c(O)c4c3C2=O)NC(=O)/C(C)=C\C=C\[C@H](C)[C@H](O)[C@@H](C)[C@@H](O)[C@@H](C)[C@H](OC(C)=O)[C@@H]1C` [rifampin, reference compound], the spontaneous resistance frequency is listed as 2.0×10^−8 in the data set with S. aureus SA101 and 2.88×10^−7 with S. pneumoniae SP106.
By MIC50 is commonly meant an inhibitory concentration at the 50% level, which refers to growth in some studies and to a panel of isolates in others. Lower therefore signals higher susceptibility. As a reminder, the MIC90 is the lowest concentration that inhibits either 90% of growth or 90% of the strains tested, depending on the study. Read a high MIC90 as weaker potency. In the case of Gentamicin, the MIC50 result in data set [5] (Acinetobacter lwoffii, n=29) was “≦0.25 μg/ml”; in data set [5] (Enterobacter aerogenes, n=30), “≦0.25 μg/ml”; in data set [5] (Enterobacter cloacae, n=29), 0.5 µg/mL; in data set [5] (Escherichia coli, n=40) it was 2 µg/mL; in [5] (Kiebsielia oxytoca, n=30) it was 0.5 µg/mL; in data set [5] (Klebsiella pneumonia, n=27), more than 8 µg/mL. Moreover, the MIC50 in [5] (Morganella morganii, n=30) came to 1 µg/mL; in data set [5] (Proteus vulgaris, n=29), 1 µg/mL; in data set [5] (Salmonella species, n=30), 0.5 µg/mL; in [5] (Serratia marcescens, n=30), 0.5 µg/mL; in data set [5] (Shigella species, n=30), 1 µg/mL; in data set [5] (setting [6]) it was 0.25 µg/mL. Besides, the MIC50 in data set [5] (setting [7]) was more than 8 µg/mL; in the data set on Gram-positive pathogens (CoNS, MRCoNS (n = 26)) it was 0.25 µg/mL; in the data set on Gram-positive pathogens (CoNS, MSCoNS (n = 26)), 0.12 µg/mL; with Gram-positive pathogens (E. faecalis, VAN NS (n = 48)) it was more than 8 µg/mL; against Gram-positive pathogens (E. faecalis, VAN S (n = 53)), more than 8 µg/mL; with Gram-positive pathogens (E. faecium, VAN NS (n = 51)) it was 8 µg/mL. Also, the MIC50 in the data set on Gram-positive pathogens (E. faecium, VAN S (n = 49)) was 8 µg/mL; against Gram-positive pathogens (S. aureus, MSSA (n = 50)) it was 0.25 µg/mL; with Gram-positive pathogens (S. saprophyticus (n = 36)) it was “≦0.06 mg/mL”; in the data set on M. catarrhalis (n = 50), 0.12 µg/mL. Further, the MIC90 in [5] (Acinetobacter lwoffii, n=29) is 1 µg/mL; in data set [5] (Enterobacter aerogenes, n=30), 0.5 µg/mL; in [5] (Enterobacter cloacae, n=29) it was more than 8 µg/mL; in [5] (Escherichia coli, n=40) it was more than 8 µg/mL; in data set [5] (Kiebsielia oxytoca, n=30), 2 µg/mL; in data set [5] (Klebsiella pneumonia, n=27), more than 8 µg/mL. The MIC90 is more than 8 µg/mL in data set [5] (Morganella morganii, n=30); more than 8 µg/mL in data set [5] (Proteus vulgaris, n=29); 1 µg/mL in data set [5] (Salmonella species, n=30); 1 µg/mL in data set [5] (Serratia marcescens, n=30); 1 µg/mL in [5] (Shigella species, n=30); 0.5 µg/mL in [5] (setting [6]). Moreover, the MIC90 is more than 8 µg/mL in data set [5] (setting [7]); more than 8 µg/mL against Gram-positive pathogens (CoNS, MRCoNS (n = 26)); 0.25 µg/mL against Gram-positive pathogens (CoNS, MSCoNS (n = 26)); more than 8 µg/mL against Gram-positive pathogens (E. faecalis, VAN NS (n = 48)); more than 8 µg/mL in the data set with Gram-positive pathogens (E. faecalis, VAN S (n = 53)); more than 8 µg/mL against Gram-positive pathogens (E. faecium, VAN NS (n = 51)). Also, the MIC90 against Gram-positive pathogens (E. faecium, VAN S (n = 49)) was more than 8 µg/mL; against Gram-positive pathogens (S. aureus, MSSA (n = 50)), 0.5 µg/mL; against Gram-positive pathogens (S. saprophyticus (n = 36)), “≦0.06 mg/mL”; against M. catarrhalis (n = 50), 0.12 µg/mL.
